Assay results published in US6664242B2 (priority 2000, dated 2003).
Like-named read-outs stand apart in the source and are kept apart here.

Tests used:
[1] = system: metastatic colorectal cancer; conditions: oral capecitabine, first-line, phase III; cited from earlier work
[2] = system: human colon carcinoma strain HCT-116; conditions: for Comments / Log10 cell Kill / T-C (Tumor Growth Delay): days 5-9, 12-16; for activity at the maximum tolerated dose: maximum tolerated doses, p.o., HCT-116 in Swiss-nude mice
Method: (§1) This efficacy may be quantified, for example by the log10 cells killed, which is determined by the following formula:
(§2) log10 cell killed=T-C(days)/3.32×Td
(§3) A product is considered to be active if the log10 cell kill is greater than or equal to 0.7. A product is considered to be very active is the log10 cell kill is greater than 2.8.

[3] = system: early stage HCT-116 colon carcinoma
Method: as §1, §2, §3
Three dosage levels of capecitabine were given alone on days 18-22 and 25-29. In the combination arm, two semi-simultaneous schedules were investigated.

[4] = capecitabine 443 mg/kg/adm p.o.
[5] = capecitabine 713 mg/kg/adm p.o.
[6] = capecitabine 443 mg/kg/adm p.o., days 18-22 & 25-29
[7] = capecitabine 713 mg/kg/adm p.o., days 18-22 & 25-29
[8] = capecitabine 1150 mg/kg/adm p.o., days 18-22 & 25-29
[9] = CPT-11 60 mg/kg/adm p.o., days 18-22
[10] = CPT-11 96 mg/kg/adm p.o., days 18-22

## CCCCCOC(=O)Nc1nc(=O)n([C@@H]2O[C@H](C)[C@@H](O)[C@H]2O)cc1F [capecitabine, 5′-deoxy-5-fluoro-N-[(pentyloxy)-carbonyl]-cytidine]
[1]
  efficacy compared with i.v. 5-FU/leucovorin (Mayo Clinic regimen): superior response rate and at least equivalent survival and time to disease progression
  safety profile compared with the Mayo Clinic regimen: more favourable safety profile
[2]; [4]
  Comments: Active
  Log10 cell Kill: 1.1
  T-C (Tumor Growth Delay): 16.3 days
[2]; [5]
  Comments: Active
  Log10 cell Kill: 2.6
  T-C (Tumor Growth Delay): 38.7 days
[2]
  activity at the maximum tolerated dose: highly active
[3]; [6]
  Comments: Active
  Log10 cell Kill: 2.1
  T-C (Tumor Growth Delay): 26.1 days
[3]; [7]
  Comments: Active
  Log10 cell Kill: 2.1
  T-C (Tumor Growth Delay): 25.2 days
[3]; [8]
  Log10 cell Kill: 3.2
  T-C (Tumor Growth Delay): 39.4 days

## irinotecan [CPT-11]
[2]; CPT-11 29 mg/kg/adm p.o.
  Comments: Active
  Log10 cell Kill: 2.1
  T-C (Tumor Growth Delay): 30.1 days
[2]; CPT-11 48 mg/kg/adm p.o.
  Comments: HNTD
[2]; CPT-11 80 mg/kg/adm p.o.
  Comments: Toxic
[2]
  activity at the maximum tolerated dose: highly active
[3]; [9]
  Comments: Active
  Log10 cell Kill: 1.7
  T-C (Tumor Growth Delay): 21.4 days
[3]; [10]
  Comments: HNTD
  Log10 cell Kill: 1.7
  T-C (Tumor Growth Delay): 21.3 days
[3]; CPT-11 155 mg/kg/adm p.o., days 18-22
  Comments: Toxic
